The record followed here is PubChem BioAssay (NCI).

Test in all cases: NCI tumour cell line growth inhibition, 48 h
Experiment [1] deals with MALME-3M melanoma.
In experiment [2] the test system is KM12 colon.
The subject of experiment [3] is U251 CNS.
The subject of experiment [4] is ACHN renal.
In experiment [5] the test system is SNB-19 CNS.
For experiment [6], the system named is M14 melanoma.
The subject of experiment [7] is NCI/ADR-RES ovarian.
Experiment [8] deals with HOP-92 NSCLC.
Experiment [9] concerns NCI-H23 lung.
Experiment [10] deals with MDA-MB-231 breast.

Each structure is given as a SMILES string. Values joined by “and” are separate entries in the source; they are usually repeats but may differ in a detail not shown here. Identical values can stand only once.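 How tested: cells in 96-well plates exposed to compound for 48 hours at five concentrations. GI50 marks 50% less growth. TGI is the concentration that stops growth completely.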

Consider `COc1ccc(S(=O)(=O)N2C(=O)CCC2C(=O)NN)cc1` (centres undefined), for which the TGI in experiment [1], in experiment [2], in experiment [3], in experiment [4], in experiment [5] and in [6] was more than 100 µM each time. The TGI in [7], in [8], in [9] and in experiment [10] was more than 100 µM each time.
As to `Cc1cc2c([N+](=O)[O-])cc3c(c2o1)C(=O)C=CC3=O`, the TGI is 32.2 µM in experiment [2]; 33.1 µM in [3]; 3.77 µM in experiment [4]; 30.9 µM in experiment [5]; 10.6 µM in [6]; 65.1 µM in experiment [7]. The TGI is 3.22 µM in experiment [8], 34.9 µM in experiment [9] and 40.2 µM in experiment [10].
With `Cc1cc(-c2nc3ccccc3s2)ccc1NC(=O)[C@@H](N)CCCCN`, the TGI in experiment [1] is 34.8 µM; in [2], 8.03 µM; in experiment [3], 9.88 µM; in experiment [4], 30.8 µM; in [5] it was 29.4 µM; in experiment [6], 7.88 µM. The TGI came to 36.5 µM in experiment [7], 33.3 µM in experiment [8], 17.5 µM in [9] and 25.3 µM in experiment [10].
For the compound `COC(C)(C)[C@@H](O)[C@H]1C[C@H](C)[C@@]2(CC[C@]3(C)[C@@H]2CC[C@@H]2[C@@]4(C)CC[C@@H](OC(C)=O)C(C)(C)[C@@H]4C[C@@H](OC4OC(COC(C)=O)C(O)C(O)C4O)[C@]23C)O1` (some centres undefined), the TGI in [1] came out at 23.4 µM; in experiment [2], 3.62 µM; in experiment [3], 18.5 µM; in experiment [4], 18.3 µM; in experiment [5] it was 21.3 µM; in experiment [6] it was 16.5 µM. For the same compound, the TGI in experiment [7] was 22.5 µM; in experiment [8] it was 17.6 µM; in [9], 25.8 µM; in experiment [10], 24.9 µM.
In the case of `NCCCN1CCN(CCCNc2ccc3nnn4c5ccccc5c(=O)c2c34)CC1`, the TGI in [1] is 39.1 µM; in experiment [3], more than 100 µM; in [4], 73.7 µM; in experiment [5], 46.4 µM; in experiment [6], 38.4 µM; in [7], more than 100 µM. The TGI in experiment [8] was determined as 96.6 µM; in experiment [9], 33.3 µM; in [10] it was 29.1 µM.
Regarding `COc1cc2cc(Oc3ccc(NC(=O)c4cc(C(F)(F)F)cc(C(F)(F)F)c4)cc3)c(C)nc2cc1OC`, the GI50 in [1] is more than 50 µM; in experiment [2], 2.79 µM; in experiment [3], 2.64 µM; in [4], 2.27 µM; in [6], 3.23 µM; in experiment [7], 2.61 µM. The GI50 in [8] is 1.82 µM; in experiment [9], 2.71 µM; in experiment [10], 2.55 µM. The TGI in [1], in experiment [2], in experiment [3], in [4], in experiment [6] and in experiment [7] was more than 50 µM throughout. For the same compound, the TGI in experiment [8], in [9] and in experiment [10] was more than 50 µM throughout.
With `COC(=O)CN1c2nc(C#N)c(C#N)nc2N(CC(=O)OC)c2nc(C#N)c(C#N)nc21`, the TGI is 3.01 µM in experiment [1]; 27.8 µM in [2]; more than 57.1 µM in [3]; 5.72 µM in experiment [4]; more than 65.9 µM in experiment [5]; 5.31 µM in [6]. In addition, the TGI was more than 100 µM in experiment [7], 7.44 µM in [8], more than 29.8 µM in [9] and more than 52.9 µM in experiment [10].
`Clc1ccc(CSCCc2ccncc2)cc1Cl`: the TGI in experiment [1] is 42.4 µM; in experiment [2], 50.9 µM; in [3], 28.5 µM; in experiment [4] it was 66 µM; in experiment [5] it was 35.6 µM; in experiment [6], 32.5 µM. Moreover, the TGI was determined as 50.5 µM in experiment [7], 30.4 µM in experiment [8], 51.1 µM in [9] and 29.1 µM in experiment [10].
On to `COc1nc2ncc([C@@H](OC(C)=O)[C@@H](COC(C)=O)OC(C)=O)nc2c(=O)[nH]1`, for which the TGI in experiment [1], in [2], in experiment [3], in experiment [4], in [5] and in [6] was more than 100 µM throughout. In addition, the TGI in [7], in experiment [8] and in experiment [10] was more than 100 µM each time. The GI50 in [8] is > 100 µM and 32.8 µM.
With `CNc1ncnc2c1cnn2COCC(O)CO` (centres undefined), the TGI in experiment [1], in experiment [2], in experiment [3], in experiment [4], in experiment [5] and in experiment [6] was more than 100 µM throughout. Also, the TGI in [7], in experiment [8], in experiment [9] and in experiment [10] was more than 100 µM throughout.
Turning to `Nc1ccc(-c2nc3ccccc3s2)cc1C(F)(F)F`, the TGI in [1] was found to be 29.4 µM; in [2], 31.2 µM; in experiment [3] it was 28.7 µM; in experiment [4] it was 28.5 µM; in experiment [5], 33.2 µM; in [6], 28.7 µM. Further, the TGI is 35.2 µM in experiment [7], 33.2 µM in [8], 28 µM in experiment [9] and 26.3 µM in experiment [10].
For the compound `Cc1cn(-c2cc(C(=O)Nc3cccc(-n4ccc5c(NC(=O)c6ccccc6)nccc54)c3)cc(C(F)(F)F)c2)cn1`, the GI50 in experiment [1] is 0.502 µM; in experiment [2] it was 0.372 µM; in [3], 0.29 µM; in [4] it was 0.549 µM; in experiment [5], 0.579 µM; in experiment [6], 0.452 µM. The GI50 in [7] was 1.13 µM; in experiment [8], 0.39 µM; in experiment [9], 1.06 µM; in [10], 0.68 µM. The TGI in [1] stood at 9.66 µM; in experiment [2], 1.46 µM; in [3], 1.48 µM; in [4], 8.7 µM; in [5], 25.5 µM; in experiment [6] it was 3.29 µM. The TGI in experiment [7] is more than 33.4 µM; in experiment [8], 6.49 µM; in experiment [9], 19.9 µM; in experiment [10], 3.62 µM.
Turning to `CC1(C)C2CC(=O)C1(C)C(O)C2Br` (centres undefined), the TGI in experiment [1], in [2], in [3], in experiment [4], in experiment [5] and in experiment [6] was more than 100 µM each time. The TGI in experiment [7], in experiment [8], in experiment [9] and in [10] was more than 100 µM in each case.
As to `C(/C=C(\Nc1ccccc1)C12CC3CC(CC(C3)C1)C2)=Nc1ccccc1`, the TGI was found to be 36.9 µM in experiment [1]; 35.2 µM in [2]; 31.7 µM in [3]; 26.4 µM in experiment [4]; 33.9 µM in experiment [5]; 32.6 µM in experiment [6]. For the same compound, the TGI in experiment [7] stood at 42.5 µM; in experiment [8], 60.7 µM; in [9], 36.8 µM; in [10], 34.1 µM.
For `N=C(N)c1ccc(-c2ccc(-c3cccs3)s2)cc1`, the GI50 is 1.69 µM in experiment [1]; 1.7 µM in experiment [4]; 1.94 µM in [7]; 2.71 µM in experiment [8]; 1.98 µM in experiment [9]; 1.64 µM in experiment [10]. In addition, the TGI in experiment [1] is 3.23 µM; in [4] it was 3.14 µM; in [7], 4.49 µM; in [8] it was 16 µM; in experiment [9] it was 4.86 µM; in experiment [10], 3.28 µM.
Take `NC(CC1=CS(=O)(=O)c2ccc(Cl)cc21)C(=O)O` (centres undefined): the TGI in [1], in experiment [2], in experiment [3], in experiment [4], in experiment [5] and in [6] was more than 100 µM in each case. The TGI in experiment [7], in experiment [8], in [9] and in [10] was more than 100 µM throughout.
On to `O=C1NCC(NC(=O)C(F)(F)F)c2c(Br)sc(Br)c21` (centres undefined), for which the TGI in [1], in [2], in [3], in [4], in experiment [5] and in experiment [6] was more than 100 µM each time. The TGI in experiment [7], in [8], in experiment [9] and in [10] was more than 100 µM each time.
Consider `c1csc(-c2ccc(-c3cccs3)c3nsnc23)c1`, for which the TGI in experiment [1] is more than 55.8 µM; in experiment [2] it was 22.2 µM; in experiment [3], more than 87.5 µM; in experiment [4] it was more than 100 µM; in [5], more than 100 µM; in [6], more than 100 µM. In addition, the TGI in experiment [7] was more than 83.7 µM; in experiment [8] it was more than 100 µM; in experiment [9], more than 68.4 µM; in [10], more than 31.6 µM.
Consider `C[C@]12CC[C@@H]3c4ccc(O)cc4CC[C@H]3[C@@H]1C/C(=C\c1ccncc1)[C@@H]2O`, for which the TGI in [1] is 30.9 µM; in experiment [2], 62.2 µM; in experiment [3] it was 39.6 µM; in [4], 28.3 µM; in experiment [5], more than 100 µM; in experiment [6], more than 100 µM. Besides, the TGI in [7] turned out to be 33.5 µM; in experiment [8] it was 32 µM; in [9], 22.5 µM; in experiment [10], 41.2 µM.
For the compound `Oc1[nH]c2ccc(Br)cc2c1N=NC(=S)Nc1ccc(F)cc1`, the TGI was found to be 23.8 µM in experiment [1]; 30.5 µM in experiment [2]; 18.5 µM in [3]; 18 µM in [4]; 6.63 µM in experiment [7]; 16.3 µM in experiment [8]. Besides, the TGI in [9] turned out to be 6.96 µM; in experiment [10], 35.5 µM.
Turning to `O=C(NCCCN(CCCCN(CCCNC(=O)C(F)(F)F)Cc1ccc2ccccc2c1)Cc1ccc2ccccc2c1)C(F)(F)F`, the TGI in experiment [2] was more than 100 µM; in experiment [3], more than 100 µM; in experiment [4] it was more than 100 µM; in [6] it was 4.54 µM; in [7], more than 100 µM; in [8] it was more than 100 µM. Further, the TGI in [10] is more than 100 µM.
On to `Cc1c(N2C(=O)C(Cl)C2c2ccc(Cl)cc2)c(=O)n(-c2ccccc2)n1C` (centres undefined), for which the TGI was more than 100 µM in experiment [1]; more than 100 µM in experiment [2]; more than 100 µM in [3]; 83.2 µM in [4]; more than 100 µM in [6]; more than 100 µM in [7]. Besides, the TGI in [8] was more than 100 µM; in experiment [9] it was 85.1 µM; in experiment [10], more than 100 µM.
For the compound `C=C1c2cc3c(cc2CC12Cc1cc4c(cc1C2=O)CCC4)CCC3` (centres undefined), the TGI in [1], in experiment [3], in [4], in experiment [5], in experiment [6] and in experiment [7] was more than 100 µM in each case. Moreover, the TGI in [8], in experiment [9] and in experiment [10] was more than 100 µM throughout.
On to `CC(=O)O[C@H]1C(=O)[C@@]2(C)[C@H]([C@H](OC(=O)c3ccc(F)cc3)[C@]3(O)C[C@H](OC(=O)[C@H](O)[C@@H](NC(=O)c4ccccc4)c4ccccc4)C(C)=C1C3(C)C)[C@]1(OC(C)=O)CO[C@@H]1C[C@@H]2O`, for which the TGI was more than 25 µM in experiment [1]; more than 25 µM in experiment [2]; 0.738 µM in [3]; more than 25 µM in [4]; more than 25 µM in [5]; more than 25 µM in experiment [7]. Also, the TGI in [8], in experiment [9] and in experiment [10] was more than 25 µM in each case.
Take `CCOC(=O)c1nc2ccc(C(F)(F)F)cc2nc1Oc1ccc(C#N)cc1`: the TGI in [2] was more than 100 µM; in experiment [3], 61.1 µM; in experiment [4] it was more than 100 µM; in experiment [5] it was 35.3 µM; in experiment [6], 42.9 µM; in [7] it was 48.9 µM. In addition, the TGI is 47.2 µM in experiment [8], more than 100 µM in [9] and 27.9 µM in [10].
